Assay results taken from the NIST ThermoML archive (doi:10.1016/j.jct.2019.03.023).

Details: isochoric method

CC(C)O [propan-2-ol]
mass density [kg/m3]
Details	Gas	Liquid
380.35 K	–	697.69
451.83 K	–	581.06
507.95 K	–	343.1
508.16 K	–	329.2
508.28 K	–	324.5
508.51 K	234.3	–
508.68 K	–	293.3
508.69 K	–	288.99
508.7 K	255.8	–
508.71 K	–	281.9
508.72 K	266.3	274
